# Counter-ions that a name gives are not always drawn. Like-named read-outs stand apart in the source and are kept apart here.
# Columns and labels:
# [1] = system: Influenza A/PR/3/34 (HO, Nl) strain; assay: microbe, parasite or virus in culture; format: cell-based; details: for HA-titer / MIC: MDCK cells; for HA-titer: 34° C., 3 days, control 256; for MIC: 72 h, Influenza virus; for inhibitory effects on Influenza virus growth: comparison of the two compounds, in words
# [2] = system: MDCK cells; details: 3 days, microscopic CTE
# [3] = in vitro; details: dog, mdck
# [4] = system: Newcastle disease virus; details: Koji Aigami et al., J. of Medicinal Chemistry, vol. 19, 536 (1976); cited from earlier work
smiles,measurement,setting,value
CN(C)C12CCCC3CC(CCC31)C2 (stereo not shown),HA-titer,[1]; 12.5 mcg/ml,64
same,HA-titer,[1]; 25.0 mcg/ml,64
same,HA-titer,[1]; 50.0 mcg/ml,< 4
same,MIC,[1],< 12.5 µg/mL
same,inhibitory effects on Influenza virus growth,[1],equivalent inhibitory effects on Influenza virus growth
same,Cytotoxicity,[2]; 25.0 mcg/ml,(±) (CTE is less than 10% of cells.)
same,Cytotoxicity,[2]; 50.0 mcg/ml,(+) (CTE is more than 10% and less than 50% of cells.)
same,MNTC at 72 h,[3],25 µg/mL
NC12CCCC3CC(CCC31)C2 (stereo not shown) [3-amino-4-homoisotwistane hydrochloride],antiviral activity against Newcastle disease virus,[4],have antiviral activity against Newcastle disease virus
NC12CC3CC(CC(C3)C1)C2 [Amantadine hydrochloride],HA-titer,[1]; 12.5 mcg/ml,64
same,HA-titer,[1]; 25.0 mcg/ml,< 4
same,MIC,[1],< 12.5 µg/mL
same,inhibitory effects on Influenza virus growth,[1],equivalent inhibitory effects on Influenza virus growth
same,Cytotoxicity,[2]; 12.5 mcg/ml,(±) (CTE is less than 10% of cells.)
same,Cytotoxicity,[2]; 25.0 mcg/ml,(+) (CTE is more than 10% and less than 50% of cells.)
same,MNTC at 72 h,[3],12.5 µg/mL

# Source: patent publication US4283422A (priority 1979, dated 1981)
